Results as given in ChEMBL document CHEMBL1123313, “Folate analogues. 25. Synthesis and biological evaluation of N10-propargylfolic acid and its reduced derivatives” (J Med Chem, 1986).
Converted amounts (≈) assume the structure as drawn.

How the values were obtained:
[1] = system: Lacticaseibacillus casei; assay: Inhibitory activity against Lactobacillus casei ATCC 7469; assay type: functional, organism-based
[2] = system: Lacticaseibacillus casei; assay: Inhibitory activity against Lactobacillus casei MTX-resistant; assay type: functional, organism-based
[3] = target: T1, Thymidylate synthase (Lactobacillus casei, UniProt P00469); assay: Inhibitory activity against thymidylate synthase derived from Lactobacillus casei; set-up: species or system Lacticaseibacillus casei
T1 sequence (P00469 whole entry): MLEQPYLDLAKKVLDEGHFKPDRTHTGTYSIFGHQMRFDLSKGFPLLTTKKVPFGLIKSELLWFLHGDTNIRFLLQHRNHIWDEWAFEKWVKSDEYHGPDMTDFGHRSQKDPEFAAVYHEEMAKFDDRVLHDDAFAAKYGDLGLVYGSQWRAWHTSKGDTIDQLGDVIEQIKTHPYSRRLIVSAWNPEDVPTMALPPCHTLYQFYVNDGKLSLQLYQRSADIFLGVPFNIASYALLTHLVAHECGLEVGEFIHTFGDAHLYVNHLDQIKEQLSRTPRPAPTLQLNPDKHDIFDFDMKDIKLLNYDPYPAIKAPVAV

[4] = system: Enterococcus faecium; assay: Inhibitory activity against Streptococcus faecium ATCC 8043; assay type: functional, organism-based
[5] = system: Enterococcus faecium; assay: Inhibitory activity against Streptococcus faecium MTX-resistant; assay type: functional, organism-based
[6] = target: T2, Thymidylate synthase (Mus musculus, UniProt P07607); assay: Inhibitory activity against thymidylate synthase in the intact L1210 cells; assay type: cell-based
T2 sequence (P07607 whole entry): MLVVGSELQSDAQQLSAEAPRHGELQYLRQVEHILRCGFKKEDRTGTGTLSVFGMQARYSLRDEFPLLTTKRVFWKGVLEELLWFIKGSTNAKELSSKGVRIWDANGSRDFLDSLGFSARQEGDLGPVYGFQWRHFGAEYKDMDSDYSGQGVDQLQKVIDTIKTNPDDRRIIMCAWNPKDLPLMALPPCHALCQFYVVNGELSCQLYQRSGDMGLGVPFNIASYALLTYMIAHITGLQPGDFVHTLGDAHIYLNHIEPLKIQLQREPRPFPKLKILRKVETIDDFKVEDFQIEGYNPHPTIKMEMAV

[7] = target: T2, Thymidylate synthase; assay: Inhibitory activity against the thymidylate synthase in the Permeabilized L1210 cells; assay type: cell-based
[8] = target: Dihydrofolate reductase (Lactobacillus casei, UniProt P00381)
Dihydrofolate reductase, sequence (P00381 whole entry): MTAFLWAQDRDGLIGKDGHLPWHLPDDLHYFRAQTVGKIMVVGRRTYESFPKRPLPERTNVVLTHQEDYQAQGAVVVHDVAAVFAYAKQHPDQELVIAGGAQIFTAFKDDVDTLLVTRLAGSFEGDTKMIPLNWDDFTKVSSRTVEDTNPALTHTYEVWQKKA
Description: Inhibitory activity against dihydrofolate reductase derived from Lactobacillus casei

[9] = Lacticaseibacillus casei, read-out: IC50

| IC50 [2] | Compound | IC50 [1] | IC50 [2, 9] | IC50 [3] | IC50 [4] | IC50 [5] | IC50 [6] | IC50 [7] | IC50 [8] |
| --- | --- | --- | --- | --- | --- | --- | --- | --- | --- |
| > 500000 ng/mL | CN(Cc1cnc2nc(N)nc(N)c2n1)c1ccc(C(=O)N[C@@H](CCC(=O)O)C(=O)O)cc1 [METHOTREXATE] | 0.02 ng/mL (≈ 4.4e-05 µM) |  |  |  |  |  |  |  |
|  | C#CCN(Cc1cnc2nc(N)nc(O)c2n1)c1ccc(C(=O)NC(CCC(=O)O)C(=O)O)cc1 (stereo not drawn) | > 2000 ng/mL | > 2000 ng/mL | 3.9 µM | 0.56 ng/mL (≈ 0.00117 µM) | > 2000 ng/mL | > 3000 µM | 7.5 µM | > 100 µM |
|  | C#CCN(Cc1cnc2nc(N)nc(O)c2n1)c1ccc(C(=O)O)cc1 | > 2000 ng/mL | > 2000 ng/mL | > 290 µM | 0.76 ng/mL (≈ 0.00217 µM) | > 2000 ng/mL |  |  | > 100 µM |
|  | C#CCN(Cc1ccc2[nH]c(N)nc(=O)c2c1)c1ccc(C(=O)NC(CCC(=O)O)C(=O)O)cc1 (stereo not drawn) |  | 2000 ng/mL (≈ 4.19 µM) |  |  |  |  |  |  |
|  | Nc1nc2ncc(CNc3ccc(C(=O)N[C@@H](CCC(=O)O)C(=O)O)cc3)nc2c(=O)[nH]1 [FOLIC ACID] |  |  |  |  |  | > 1000 µM | 1800 µM |  |
|  | C#CCN(CC1CNc2nc(N)nc(O)c2N1)c1ccc(C(=O)NC(CCC(=O)O)C(=O)O)cc1 (stereo not drawn) | > 2000 ng/mL | > 2000 ng/mL | 32 µM | 0.08 ng/mL (≈ 0.000165 µM) | > 2000 ng/mL |  |  | > 140 µM |
|  | CN(Cc1cnc2nc(N)nc(O)c2n1)c1ccc(C(=O)NC(CCC(=O)O)C(=O)O)cc1 (stereo not drawn) |  |  |  |  |  | > 1000 µM | 660 µM |  |
|  | C#CCN(CC1=Nc2c(O)nc(N)nc2NC1)c1ccc(C(=O)NC(CCC(=O)O)C(=O)O)cc1 (stereo not drawn) | 36 ng/mL (≈ 0.0748 µM) | > 2000 ng/mL | 50 µM | 0.13 ng/mL (≈ 0.00027 µM) | 24 ng/mL (≈ 0.0498 µM) |  |  | > 50 µM |
